Results taken from patent US7901894B2, “Kinase inhibitors” (The Research Foundation of State University of New York, priority 1999, dated 2011).
Blank lines part the entries; values can stand above or below the molecule they belong to. *1 amine or outer side, *2 acyl side, *3 side chain or, on linkers, in order; H or OH if unused. Where a SMILES comes first, the peptide text is derived from it. [ ]: non-standard residue; d: D form. X2 = O=C(O)CC(CC(=O)O)NC[C@H](N[*:1])C(=O)[*:2]; Abu(4-PO3H2) = N[C@@H](CCP(=O)(O)O)C(=O)O; X1 = O=C([C@H](CNS(=O)(=O)O)N[*:1])[*:2]; M1 = not defined here

Columns and labels:
[1] = biological target: pp60^c-src (Homo sapiens, UniProt P12931); experiment: src Cellular Mimetic assay (RR-SRC phosphorylation); conditions: for % Inhibition of 2 mM RR-src at Inhibitor Concentration ( ): Table IV; for inhibition at 1000 µM: read-out: % Inhibition of 2 mM RR-src phosphorylation by src, Cellular Mimetic
pp60^c-src, sequence (P12931 whole entry): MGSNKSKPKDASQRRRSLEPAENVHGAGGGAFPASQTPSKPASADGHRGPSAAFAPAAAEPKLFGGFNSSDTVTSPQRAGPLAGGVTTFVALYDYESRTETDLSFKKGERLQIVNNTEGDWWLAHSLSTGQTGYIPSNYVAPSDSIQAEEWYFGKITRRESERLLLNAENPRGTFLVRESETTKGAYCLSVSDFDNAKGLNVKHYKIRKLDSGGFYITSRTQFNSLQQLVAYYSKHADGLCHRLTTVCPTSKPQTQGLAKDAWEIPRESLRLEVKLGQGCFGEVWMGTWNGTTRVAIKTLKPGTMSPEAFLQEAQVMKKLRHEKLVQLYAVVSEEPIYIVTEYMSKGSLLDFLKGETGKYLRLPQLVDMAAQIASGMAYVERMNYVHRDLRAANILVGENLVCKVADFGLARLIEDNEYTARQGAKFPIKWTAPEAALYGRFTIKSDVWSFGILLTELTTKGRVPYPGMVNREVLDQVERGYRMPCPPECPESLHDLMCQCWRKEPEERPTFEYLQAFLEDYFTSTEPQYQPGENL

[2] = biological target: T1, PKA (Homo sapiens, UniProt P17612); experiment: PKA Cellular Mimetic assay; format: biochemical; conditions: Cellular Mimetic (C) conditions
From the text: (§1) The boronic acid inhibitors 21-24 have two Arg residues in their sequence and therefore will bind to the phosphocellulose paper in addition to Kemptamide (although not as consistently or completely due to one less positive charge). Consequently, when analyzed as inhibitors, the amount of phosphorylated Kemptamide produced was not only counted, but also the amount of phosphorylated inhibitor simultaneously produced (e.g. see 26 below). The net result is that distorted IC50 curves are obtained which show net “stimulation” at higher inhibitor concentrations in some cases. […] The underlying substrate behavior of these “inhibitors” makes an accurate measurement of their inhibition potency impossible with the current assay. However, it does appear from the data that homologating/extending the boronic acid functionality with CH2 groups (homologations/extensions with boronic acid non-peptide src inhibitors may also be carried out) decreases the binding affinity and ability of the compound to function as a substrate.

[3] = biological target: T1, PKA; experiment: PKA Literature Mimetic assay; format: biochemical; conditions: for Ki: Literature Mimetic (L) conditions
From the text: as §1

[4] = biological target: T1, PKA; experiment: STAIRe method: form of the protein kinase the inhibitor binds best; format: biochemical
From the text: This was a somewhat surprising result since these inhibitors are analogs of the “end product inhibitors” 1 and 12 which must bind simultaneously with MgADP, following phosphate transfer in the generally accepted reaction mechanism for protein kinases.

[5] = biological target: T2, src (Homo sapiens, UniProt P12931); experiment: src Literature Mimetic assay (RR-src phosphorylation); format: biochemical; conditions: Inhibitor 1 mM; read-out: % Inhibition of 2 mM RR-src phosphorylation by src, Literature Mimetic
T2 construct: purchased
T2 sequence (P12931 whole entry): as above

[6] = system: ovarian tumor cells from tumor N015; experiment: Patient tumor cell culture (ovarian tumors, abdominal carcinoma; tumor N015); format: cell-based, human
From the text: The initial non-peptide Src inhibitors have also shown very encouraging results in four different series of cell culture assays. 1) In the NIH 60-tumor cell panel assay, broad activity (as one would expect for a Src inhibitor) was seen against the tumor cell lines, including the prostate lines. […] […].

[7] = biological target: p56^lck (Homo sapiens, UniProt P06239); conditions: analyzed with p56^lck; cited from earlier work
p56^lck, sequence (P06239 whole entry, species assumed): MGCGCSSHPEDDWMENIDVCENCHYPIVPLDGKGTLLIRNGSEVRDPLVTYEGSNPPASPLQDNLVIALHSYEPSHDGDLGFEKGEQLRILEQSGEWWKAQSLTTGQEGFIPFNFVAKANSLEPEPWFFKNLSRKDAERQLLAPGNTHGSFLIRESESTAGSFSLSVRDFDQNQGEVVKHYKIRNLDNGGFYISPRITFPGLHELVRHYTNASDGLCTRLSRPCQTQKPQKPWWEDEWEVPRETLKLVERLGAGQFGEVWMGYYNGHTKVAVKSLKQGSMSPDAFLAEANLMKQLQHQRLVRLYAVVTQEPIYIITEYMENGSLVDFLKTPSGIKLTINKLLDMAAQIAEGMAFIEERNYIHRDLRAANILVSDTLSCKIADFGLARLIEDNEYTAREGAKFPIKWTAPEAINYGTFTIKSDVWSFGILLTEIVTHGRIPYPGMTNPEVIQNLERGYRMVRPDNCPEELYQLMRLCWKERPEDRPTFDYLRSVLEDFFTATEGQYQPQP

[8] = system: T3, boronic acid-containing PKA pentapeptide inhibitor 21, Ac-RRGXI-NH2
T3 sequence: RRGXI

[9] = system: T4, boronic acid-containing PKA pentapeptide inhibitor 22, Ac-RRGXI-NH2
T4 sequence: RRGXI

[10] = biological target: cAMP-dependent protein kinase (PKA); experiment: PKA kinase inhibition assay (Ki, Table I); reference: the same inhibitor under Literature Mimetic conditions
[11] = biological target: cAMP-dependent protein kinase (PKA); experiment: PKA kinase inhibition assay, Literature Mimetic conditions
[12] = biological target: cAMP-dependent protein kinase (PKA); experiment: cell-based or functional assay
[13] = biological target: cAMP-dependent protein kinase (PKA); experiment: PKA kinase inhibition assay with Kemptamide substrate, Literature Mimetic conditions, 0 h preincubation
[14] = biological target: cAMP-dependent protein kinase (PKA); experiment: PKA kinase inhibition assay with Kemptamide substrate, Cellular Mimetic conditions, 0 h preincubation
[15] = biological target: cAMP-dependent protein kinase (PKA); experiment: PKA kinase inhibition assay, Cellular Mimetic conditions; reference: phosphate inhibitor 1
[16] = biological target: cAMP-dependent protein kinase (PKA); experiment: PKA kinase inhibition assay, Literature Mimetic conditions; reference: phosphate inhibitor 1
[17] = biological target: cAMP-dependent protein kinase (PKA); experiment: PKA kinase inhibition assay, Literature Mimetic conditions; reference: sulfamic acid inhibitor 8

Molecule: CC[C@H](C)[C@H](NC(=O)[C@H](CNS(=O)(=O)O)NC(=O)CNC(=O)[C@H](CCCNC(=N)N)NC(=O)[C@H](CCCNC(=N)N)NC(C)=O)C(N)=O [compound 8] (Ac-RRG[X1]I-NH2)
binds more tightly than end product phosphate inhibitor 1 [2]: 108 times | binds more tightly than end product phosphate inhibitor 1 ([3]; Literature Mimetic conditions): 31 times | enzyme form bound best (STAIRe methodology) [4]: bind best when MgATP (not MgADP or no nucleotide) is also bound

Molecule: CC[C@H](C)[C@H](NC(=O)[C@H](CCP(=O)(O)O)NC(=O)CNC(=O)[C@H](CCCNC(=N)N)NC(=O)[C@H](CCCNC(=N)N)NC(C)=O)C(N)=O (Ac-RRG[Abu(4-PO3H2)]I-NH2)
Ki [3]: 76 µM

Molecule: NC(=O)CC(=O)O
inhibition at 1000 µM [5]: 20% | inhibition at 1000 µM [1]: 28%

Molecule: COC(=O)c1cc2ccccc2cc1N [Compd 1d]
% Inhibition at 100 μM (std. dev.) ([1]; Table VI, hydroxynaphthalene series, 198 μM ATP): inactive

Molecule: CC[C@H](C)[C@H](NC(=O)[C@H](CC(O)P(=O)(O)O)NC(=O)CNC(=O)[C@H](CCCNC(=N)N)NC(=O)[C@H](CCCNC(=N)N)NC(C)=O)C(N)=O (single isomer, unassigned) [inhibitor 3A]
Ki [3]: 18 µM

Molecule: O=P(O)(O)CO
inhibition at 1000 µM [5]: 51% | inhibition at 1000 µM [1]: 0%

Molecule: OB(O)c1cccc2ccccc12
% Inhibition of 2 mM RR-src at Inhibitor Concentration ( ) ([1]; 100 μM inhibitor): 0 (100 μM) %

Molecule: OB(O)c1cc2ccccc2o1 [compound 35]
% Inhibition of 2 mM RR-src at Inhibitor Concentration ( ) ([1]; 100 μM inhibitor): 10 (100 μM) %

Molecule: CC[C@H](C)[C@H](NC(=O)[C@H](CC(O)P(=O)(O)O)NC(=O)CNC(=O)[C@H](CCCNC(=N)N)NC(=O)[C@H](CCCNC(=N)N)NC(C)=O)C(N)=O (single isomer, unassigned) [inhibitor 3B]
Ki [3]: 72 µM

Molecule: O=S(=O)(O)c1ccc2ccccc2c1
% Inhibition of 2 mM RR-src at Inhibitor Concentration ( ) ([1]; 1 mM inhibitor): 0 (1 mM) %

Molecule: CC(=O)O[C@H]1C(=O)[C@@]2(C)[C@H]([C@H](OC(=O)c3ccccc3)[C@]3(O)C[C@H](OC(=O)[C@H](O)[C@@H](NC(=O)c4ccccc4)c4ccccc4)C(C)=C1C3(C)C)[C@]1(OC(C)=O)CO[C@@H]1C[C@@H]2O [taxol]
efficacy in tumor cell culture compared with other drugs [6]: more effective than etoposide & cisplatin

Molecule: COc1cccc2c1C(=O)c1c(O)c3c(c(O)c1C2=O)C[C@@](O)(C(=O)CO)C[C@@H]3O[C@H]1C[C@H](N)[C@H](O)[C@H](C)O1 [doxorubicin]
efficacy in tumor cell culture compared with other drugs [6]: more effective than etoposide & cisplatin

Molecule: Cc1cc(O)c2c(c1)C(=O)c1cc(O)cc(O)c1C2=O [Emodin]
mode of inhibition with respect to ATP [7]: ATP-competitive

Molecule: cAMP-dependent protein kinase (PKA)
phosphorylation by PKA on incubation for up to 4 hours without Kemptamide [8]: both 21 and 22 function as substrates with the D-diastereomer 22 being phosphorylated faster | phosphorylation by PKA on incubation for up to 4 hours without Kemptamide [9]: both 21 and 22 function as substrates with the D-diastereomer 22 being phosphorylated faster

B2: PKA pentapeptide inhibitor 3B (hydroxyphosphonate, diastereomer B), Ac-Arg-Arg-Gly-Ala(M1)-Ile-NH2 (peptide)
peptide: Ac-RRGA(M1)I-NH2
modifications: reading uncertain; also: diastereomer B at M1, printed as Ac-Arg-Arg-Gly-Ala(M1)-Ile-NH2
Ki [11]: 72 µM

Molecule: Ac-RRGAI-NH2 [pentapeptide pseudosubstrate inhibitor 20, Ac-RRGAI-NH2]
IC50 µM (cond. C, 0 h preincubation), PKA inhibition [12]: 41 µM | IC50 µM (cond. C, 4 h preincubation), PKA inhibition [12]: 50 µM | IC50 µM (cond. L, 0 h preincubation), PKA inhibition [12]: 278 µM | IC50 µM (cond. L, 4 h preincubation), PKA inhibition [12]: 417 µM | Ki [13]: 9 µM | Ki [14]: 25 µM

B3: PKA pentapeptide inhibitor 1 (end product phosphate inhibitor), Ac-Arg-Arg-Gly-Ala(M1)-Ile-NH2 (peptide)
peptide: Ac-RRGAI-NH2
modifications: not fully specified (residue 4); printed as Ac-Arg-Arg-Gly-Ala(M1)-Ile-NH2; also: M1 = phosphate group on side chain of residue 4
fold change in potency, Literature Mimetic to Cellular Mimetic conditions [10]: 108 fold

B5: PKA pentapeptide inhibitor 8 (sulfamic acid), Ac-Arg-Arg-Gly-Ala(M1)-Ile-NH2 (peptide)
peptide: Ac-RRGAI-NH2
modifications: not fully specified (residue 4); printed as Ac-Arg-Arg-Gly-Ala(M1)-Ile-NH2; also: M1 = sulfamic acid on side chain of residue 4
Ki [11]: 0.16 µM | fold tighter binding than end product phosphate inhibitor 1 [15]: 108 times | fold tighter binding than end product phosphate inhibitor 1 [16]: 31 times

B6: PKA pentapeptide inhibitor 7 (sulfonamide), Ac-Arg-Arg-Gly-Ala(M1)-Ile-NH2 (peptide)
peptide: Ac-RRGAI-NH2
modifications: not fully specified (residue 4); printed as Ac-Arg-Arg-Gly-Ala(M1)-Ile-NH2; also: M1 = sulfonamide on side chain of residue 4
Ki [11]: 300 µM | fold less potent than inhibitor 8 [17]: 1880 times

Results, then the molecule that gave them:

% Inhibition of 2 mM RR-src at Inhibitor Concentration ( ) ([1]; 100 μM inhibitor): 0 (100 μM) %
Molecule: NS(=O)(=O)c1ccc2ccccc2c1

inhibition at 1000 µM [5]: 64% | inhibition at 1000 µM [1]: 5%
Molecule: NC(=O)C(O)C(=O)O (centres unmarked)

% Inhibition of 2 mM RR-src at Inhibitor Concentration ( ) ([1]; 100 μM inhibitor): 0 (100 μM) %
Molecule: NS(=O)(=O)c1cccc2ccccc12

Ki [3]: 45 µM
Molecule: CC[C@H](C)[C@H](NC(=O)[C@H](CNC(CC(=O)O)CC(=O)O)NC(=O)CNC(=O)[C@H](CCCNC(=N)N)NC(=O)[C@H](CCCNC(=N)N)NC(C)=O)C(N)=O (Ac-RRG[X2]I-NH2)

inhibition at 1000 µM [5]: 24% | inhibition at 1000 µM [1]: 0%
Molecule: NC(=O)C(N)C(=O)O (centres unmarked)

mode of inhibition relative to ATP ([1]; ATP increased up to 1 mM): not ATP-competitive
Molecule: OB(O)c1ccc2ccccc2c1 [compound 27]

fold change in potency, Literature Mimetic to Cellular Mimetic conditions [10]: 3 fold
B1: PKA pentapeptide inhibitor 10, Ac-Arg-Arg-Gly-Ala(M1)-Ile-NH2 (peptide)
peptide: Ac-RRGA(M1)I-NH2
modifications: reading uncertain; also: M1 group structure shown only in a drawing, printed as Ac-Arg-Arg-Gly-Ala(M1)-Ile-NH2

Ki [11]: 45 µM
B4: PKA pentapeptide inhibitor 11, Ac-Arg-Arg-Gly-Ala(M1)-Ile-NH2 (peptide)
peptide: Ac-RRGA(M1)I-NH2
modifications: not fully specified; printed as Ac-Arg-Arg-Gly-Ala(M1)-Ile-NH2; reading uncertain

Ki [11]: 18 µM
B7: PKA pentapeptide inhibitor 3A (hydroxyphosphonate, diastereomer A), Ac-Arg-Arg-Gly-Ala(M1)-Ile-NH2 (peptide)
peptide: Ac-RRGA(M1)I-NH2
modifications: reading uncertain; also: diastereomer A at M1, printed as Ac-Arg-Arg-Gly-Ala(M1)-Ile-NH2

Ki [11]: 76 µM
B8: PKA pentapeptide inhibitor 2 (phosphonate), Ac-Arg-Arg-Gly-Ala(M1)-Ile-NH2 (peptide)
peptide: Ac-RRGAI-NH2
modifications: not fully specified (residue 4); printed as Ac-Arg-Arg-Gly-Ala(M1)-Ile-NH2; also: M1 = phosphonate on side chain of residue 4
